# In publication PMC10607160 (International Journal of Molecular Sciences, 2023):
# Legend:
# [1] = Solubility issue noted in the binding experiments; type: physicochemical; details: in binding assay
# Protocol: The data were fitted to a one-site competition model via nonlinear regression and the IC50 values were determined as described in Section 3.4.
# [2] = target: T1, human GnRHR I (Homo sapiens, UniProt P30968); assay: Competitive radioligand binding (125I-DTyr6-His5-GnRH) on membranes from HEK 293 cells stably expressing GnRHR I; details: competition with 125I-DTyr6-His5-GnRH, HEK 293 membranes, 4 °C 16-19 h, one-site model; read-out: apparent binding affinity (IC50)
# T1 construct: expressed in transfected cells
# T1 sequence (P30968 1-328): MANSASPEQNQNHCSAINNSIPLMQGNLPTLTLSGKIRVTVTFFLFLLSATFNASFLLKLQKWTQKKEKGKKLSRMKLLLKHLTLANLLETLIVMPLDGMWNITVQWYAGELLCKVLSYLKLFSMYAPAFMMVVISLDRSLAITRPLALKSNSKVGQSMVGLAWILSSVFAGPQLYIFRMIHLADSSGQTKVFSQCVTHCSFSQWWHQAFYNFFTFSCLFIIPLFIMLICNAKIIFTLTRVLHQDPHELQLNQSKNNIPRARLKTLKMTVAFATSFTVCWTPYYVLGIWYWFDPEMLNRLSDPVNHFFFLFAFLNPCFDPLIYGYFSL
# [3] = target: E. coli Trx1 / E. coli TrxR (thioredoxin system) (Escherichia coli, UniProt P0AA25); assay: Disulfide bond reduction assay by EcoTrx1 (NADPH absorbance at 340 nm); type: biochemical; details: for Absorbance Asample1 / Absorbance Asample2 / Absorbance Average1, 2: A340, with TrxR
# Protocol: The assay employed was based on changes in the absorbance at 340 nm from the oxidation of NADPH using a modified version of the protocol laid out in [90]. Briefly, the decrease in A340 was measured in 96-well plates containing 100 μL of 200 mM potassium phosphate pH 7.4, 1 mM EDTA, 0.1 mg/mL BSA, 200 μM NADPH, 2 μM E. coli Trx1 and 10 nM E. coli TrxR for 5 min at 25 °C with insulin at a final concentration of 0.067 mM (0.2 mM disulfides) (see Table S2). The reduction of con7 was measured at a final concentration of 0.2 mM (see Table S3). Blanks were samples without EcoTrxR.
# Figure 4 Reduction of (A) con7 and (B) insulin by EcoTrx1. The assay mixture contains 200 mM potassium phosphate pH 7.4, 1 mM EDTA, 0.1 mg/mL BSA, 200 μM NADPH, 2 μM Escherichia coli Trx1, 10 nM E. coli TrxR, (A) 0.2 mM con7 or (B) 0.067 mM (0.2 mM disulfides) insulin. The reaction was carried out at 25 °C by monitoring the decrease of NADPH absorbance at 340 nm for (A) con7 in the absence ( [drawing 1] ) or presence of TrxR ( [drawing 2] ) and (B) insulin in the absence ( [drawing 3] ) or presence of TrxR ( [drawing 4] ).
# Sequence of E. coli Trx1 / E. coli TrxR (thioredoxin system) (P0AA25 2-109): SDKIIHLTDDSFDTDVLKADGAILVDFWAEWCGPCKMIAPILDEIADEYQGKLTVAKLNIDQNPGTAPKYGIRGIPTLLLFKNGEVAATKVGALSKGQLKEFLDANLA
compound,measurement,setting,value
CCNC(=O)[C@@H]1CCCN1C(=O)[C@H](CCCNC(=N)N)NC(=O)[C@H](CC(C)C)NC(=O)[C@@H](CSSCC(=O)NCCCCNc1ccc(O)c2c1C(=O)c1ccccc1C2=O)NC(=O)[C@H](Cc1ccc(O)cc1)NC(=O)[C@H](CO)NC(=O)[C@H](Cc1c[nH]c2ccccc12)NC(=O)[C@H](Cc1c[nH]cn1)NC(=O)[C@@H]1CCC(=O)N1 [con4],solubility,[1],solubility issues
CCNC(=O)[C@@H]1CCCN1C(=O)[C@H](CCCNC(=N)N)NC(=O)[C@H](CC(C)C)NC(=O)[C@@H](CCCCNC(=O)CCCCCNC(=O)CCSSCC(=O)OCCNCCNc1ccc(NCCNCCO)c2c1C(=O)c1c(O)ccc(O)c1C2=O)NC(=O)[C@H](Cc1ccc(O)cc1)NC(=O)[C@H](CO)NC(=O)[C@H](Cc1c[nH]c2ccccc12)NC(=O)[C@H](Cc1c[nH]cn1)NC(=O)[C@@H]1CCC(=O)N1 [con7],IC50,[2],0.06 nM
same,speed of reduction compared with insulin,"[3]; 0.2 mM con7 vs 0.067 mM insulin (0.2 mM disulfides), 25 °C",more rapid
same,Absorbance Asample1,[3]; 0 sec,1.004
same,Absorbance Asample2,[3]; 0 sec,0.982
same,"Absorbance Average1, 2",[3]; 0 sec,0.993
same,Absorbance Asample1,[3]; 9 sec,1.004
same,Absorbance Asample2,[3]; 9 sec,0.980
same,"Absorbance Average1, 2",[3]; 9 sec,0.992
same,Absorbance Asample1,[3]; 18 sec,1.004
same,Absorbance Asample2,[3]; 18 sec,0.981
same,"Absorbance Average1, 2",[3]; 18 sec,0.992
same,Absorbance Asample1,[3]; 27 sec,1.003
same,Absorbance Asample2,[3]; 27 sec,0.980
same,"Absorbance Average1, 2",[3]; 27 sec,0.991
same,Absorbance Asample1,[3]; 36 sec,1.002
same,Absorbance Asample2,[3]; 36 sec,0.978
same,"Absorbance Average1, 2",[3]; 36 sec,0.990
same,Absorbance Asample1,[3]; 45 sec,1.000
same,Absorbance Asample2,[3]; 45 sec,0.979
same,"Absorbance Average1, 2",[3]; 45 sec,0.989
same,Absorbance Asample1,[3]; 54 sec,1.000
same,Absorbance Asample2,[3]; 54 sec,0.977
same,"Absorbance Average1, 2",[3]; 54 sec,0.988
same,Absorbance Asample1,[3]; 63 sec,0.999
same,Absorbance Asample2,[3]; 63 sec,0.977
same,"Absorbance Average1, 2",[3]; 63 sec,0.988
same,Absorbance Asample1,[3]; 72 sec,0.999
same,Absorbance Asample2,[3]; 72 sec,0.976
same,"Absorbance Average1, 2",[3]; 72 sec,0.987
same,Absorbance Asample1,[3]; 81 sec,0.998
same,Absorbance Asample2,[3]; 81 sec,0.973
same,"Absorbance Average1, 2",[3]; 81 sec,0.985
same,Absorbance Asample1,[3]; 90 sec,0.997
same,Absorbance Asample2,[3]; 90 sec,0.974
same,"Absorbance Average1, 2",[3]; 90 sec,0.985
same,Absorbance Asample1,[3]; 99 sec,0.996
same,Absorbance Asample2,[3]; 99 sec,0.972
same,"Absorbance Average1, 2",[3]; 99 sec,0.984
same,Absorbance Asample1,[3]; 108 sec,0.996
same,Absorbance Asample2,[3]; 108 sec,0.971
same,"Absorbance Average1, 2",[3]; 108 sec,0.983
same,Absorbance Asample1,[3]; 117 sec,0.995
same,Absorbance Asample2,[3]; 117 sec,0.971
same,"Absorbance Average1, 2",[3]; 117 sec,0.983
same,Absorbance Asample1,[3]; 126 sec,0.994
same,Absorbance Asample2,[3]; 126 sec,0.970
same,"Absorbance Average1, 2",[3]; 126 sec,0.982
same,Absorbance Asample1,[3]; 135 sec,0.992
same,Absorbance Asample2,[3]; 135 sec,0.968
same,"Absorbance Average1, 2",[3]; 135 sec,0.980
same,Absorbance Asample1,[3]; 144 sec,0.991
same,Absorbance Asample2,[3]; 144 sec,0.967
same,"Absorbance Average1, 2",[3]; 144 sec,0.979
same,Absorbance Asample1,[3]; 153 sec,0.990
same,Absorbance Asample2,[3]; 153 sec,0.966
same,"Absorbance Average1, 2",[3]; 153 sec,0.978
same,Absorbance Asample1,[3]; 162 sec,0.990
same,Absorbance Asample2,[3]; 162 sec,0.966
same,"Absorbance Average1, 2",[3]; 162 sec,0.978
same,Absorbance Asample1,[3]; 171 sec,0.989
same,Absorbance Asample2,[3]; 171 sec,0.964
same,"Absorbance Average1, 2",[3]; 171 sec,0.977
same,Absorbance Asample1,[3]; 180 sec,0.989
same,Absorbance Asample2,[3]; 180 sec,0.965
same,"Absorbance Average1, 2",[3]; 180 sec,0.977
same,Absorbance Asample1,[3]; 189 sec,0.989
same,Absorbance Asample2,[3]; 189 sec,0.964
same,"Absorbance Average1, 2",[3]; 189 sec,0.977
same,Absorbance Asample1,[3]; 198 sec,0.988
same,Absorbance Asample2,[3]; 198 sec,0.962
same,"Absorbance Average1, 2",[3]; 198 sec,0.975
same,Absorbance Asample1,[3]; 207 sec,0.986
same,Absorbance Asample2,[3]; 207 sec,0.961
same,"Absorbance Average1, 2",[3]; 207 sec,0.974
same,Absorbance Asample1,[3]; 216 sec,0.987
same,Absorbance Asample2,[3]; 216 sec,0.960
same,"Absorbance Average1, 2",[3]; 216 sec,0.974
same,Absorbance Asample1,[3]; 225 sec,0.985
same,Absorbance Asample2,[3]; 225 sec,0.959
same,"Absorbance Average1, 2",[3]; 225 sec,0.972
same,Absorbance Asample1,[3]; 234 sec,0.984
same,Absorbance Asample2,[3]; 234 sec,0.957
same,"Absorbance Average1, 2",[3]; 234 sec,0.971
same,Absorbance Asample1,[3]; 243 sec,0.984
same,Absorbance Asample2,[3]; 243 sec,0.955
same,"Absorbance Average1, 2",[3]; 243 sec,0.970
same,Absorbance Asample1,[3]; 252 sec,0.982
same,Absorbance Asample2,[3]; 252 sec,0.954
same,"Absorbance Average1, 2",[3]; 252 sec,0.968
same,Absorbance Asample1,[3]; 261 sec,0.982
same,Absorbance Asample2,[3]; 261 sec,0.952
same,"Absorbance Average1, 2",[3]; 261 sec,0.967
same,Absorbance Asample1,[3]; 270 sec,0.980
same,Absorbance Asample2,[3]; 270 sec,0.952
same,"Absorbance Average1, 2",[3]; 270 sec,0.966
same,Absorbance Asample1,[3]; 279 sec,0.981
same,Absorbance Asample2,[3]; 279 sec,0.951
same,"Absorbance Average1, 2",[3]; 279 sec,0.966
same,Absorbance Asample1,[3]; 288 sec,0.979
same,Absorbance Asample2,[3]; 288 sec,0.949
same,"Absorbance Average1, 2",[3]; 288 sec,0.964
same,Absorbance Asample1,[3]; 297 sec,0.978
same,Absorbance Asample2,[3]; 297 sec,0.949
same,"Absorbance Average1, 2",[3]; 297 sec,0.963
same,reduction of disulfide bond by the thioredoxin system,[3]; decrease of NADPH absorbance over time in samples containing TrxR,successful
